Assay results reported in US20260242320A1, “USE OF CANNABIDIOL DERIVATIVE IN PREPARATION OF MEDICAMENT” (priority 2023, published 2026).

Columns and labels:
[1] = tested on: Tau, TrkB, Syn1, Aβ; experiment: Western blot of Alzheimer's disease markers in mouse hippocampus; type: in vivo; settings: transgene mice, 0, 0.2, 2, or 20 mg/kg
Experimental: The protein samples from the mouse hippocampus were analyzed for Tau5, p-Tau (T231), p-Tau (S202), p-Tau (S404), p-TrkB (Y705), Syn1, Aβ1-42, and Aβ1-16 protein content using Western blot technique.

[2] = tested on: lactate in BV-2 culture; experiment: Extracellular lactic acid assay; type: cell-based; settings: BV-2, 10 μM, LPS 200 ng/mL, 12 h
Experimental: BV-2 cells were seeded at a density of 5×10^5 cells per well in 6-well plates and incubated for 24 h. BV-2 cells were treated with 10 μM CIAC001 or 10 μM Compound 19b in the absence or presence of 200 ng/mL LPS for 12 h. Culture medium was collected and centrifuged (5000 g, 4° C.) for 5 min. The supernates were used for lactic acid contents determination by lactic acid assay kit (A019-2-1, Nanjing Jiancheng Bioengineering Institute).

[3] = target: T1, CB1 Receptor (Homo sapiens, UniProt P21554); experiment: cAMP measurement, forskolin-induced cAMP accumulation, CB1; type: cell-based; settings: cAMP assay
T1 construct: expressed in transfected cells; host or cells: GloSensor 22-F HEK293 cells
Experimental: GloSensor 22-F HEK293 cells were transfected with plasmids encoding different receptors (CB1 and CB2). After 24 h, HEK293 cells were seeded at a density of 5×10^4 cells per well in 96-well plates and incubated for 8 h; then, the medium was removed, and 200 μL of serum-free DMEM medium containing 2% GloSensor cAMP substrate (Promega) was added. After 2 h incubation, the transfected cells were stimulated with different concentrations of ligands together with […]. The luminescence was recorded using a Multimode Plate Reader (En Vision, PerkinElmer).

[4] = target: PKM2 protein (Homo sapiens, UniProt P14618); experiment: Fluorescence titration of purified PKM2; type: binding; settings: PKM2 0.5 μM
Experimental: PKM2 protein (0.5 μM) was titrated with increasing concentrations of CIAC001, and the fluorescence intensity (λex 280 nm; λem 337 nm) was recorded by a fluorescence spectrophotometer (Cary Eclipse, Agilent Technologies Inc., USA). Appropriate controls were subtracted from the spectra obtained from the samples. The data were fitted by the nonlinear least squares method using Equation 8, derived from equations 1-7.
Because [LP2]^3 is far less than (LT+PT)×[LP2]^2, Equation 6 can be simplified as Equation 7, allowing derivation of Equation 8: […]
where F is the measured fluorescence; F0 is the initial fluorescence of PKM2 in the absence of CIAC001; FPL is an adjustable parameter for protein-ligand complex molar fluorescence; KD is the dissociation constant; LT is the total concentration of CIAC001; and PT is the total PKM2 concentration. The stoichiometry n was fitted according to the equation […].

[5] = tested on: LPS-activated BV-2 cells; experiment: Cell morphology determination; type: cell-based; settings: 10 μM, LPS 200 ng/ml, 24 h
Experimental: BV-2 cells were seeded at a density of 2.5×10^5 cells per milliliter in 6-well plates and incubated for 12 h. Cells were incubated with CIAC001 (10 μM) in the absence or presence of LPS (200 ng/ml) for 24 h. The images of BV-2 cells were taken with an inverted microscope (Ts2-FL, Nikon Corporation, Tokyo, Japan) and analyzed by ImageJ. Statistic data are counted in at least three hundred cells.

[6] = Open field test; type: in vivo, mice; settings: 20 mg/kg i.p., seven consecutive days
Experimental: After two days of habitation, each mouse was placed in the open field, and the moving distances within 1 h and the grooming and rubbing numbers within the first 15 min was recorded as vehicle control (pre-test group). Next, each mouse was administered CIAC001 (20 mg/kg; i.p.) once daily for 7 days. 24 h after the last administration, the moving distances and the grooming and rubbing numbers were measured again to compare changes before and after CIAC001 treatment.

[7] = tested on: hippocampus of transgene mice; experiment: Potential of hippocampus (LTP) measurement; type: in vivo
Experimental: Mouse brains were quickly removed following anesthetization using isoflurane and euthanasia by cervical dislocation and immersed in pre-chilled artificial cerebrospinal fluid (ACSF) for 3 minutes while continuously supplying O2 to the fluid to maintain brain activity. Then, the brain was then quickly fixed with glue onto a platform of a vibratome (with the olfactory bulb facing up and the hindbrain facing down) and placed in well-oxygenated, pre-chilled ACSF. The brain was then sliced at 300 μm per slice with a cutting speed of 0.14 mm/s, starting from the appearance of the hippocampus. The collected brain slices were divided into left and right hemispheres and incubated in an O2-filled water bath at 32° C. for 2 hours. Afterwards, computer software used for recording was adjusted to ensure a stable baseline. The incubated brain slices were placed in the center of an electrode, with the brightest line of the CA1 region in the hippocampus spanning diagonally across the baseline, and fixed with a grid and iron block inside the recording device. Each potential in the electrode was stimulated to find the optimal stimulation point. High-frequency stimulation was then performed at the optimal point. Software was then used to record the changes in electrical potential at each electrode point.

[8] = tested on: Hif-1α; experiment: Hif-1α western blot in mPFC after chronic morphine; type: in vivo; settings: mice
Source text: ImageJ was used for densitometric analysis.

[9] = Respiratory rate determination; type: in vivo, mice; settings: CIAC001 20 mg/kg i.p.; THC 10 mg/kg i.p.
Experimental: Mice were intraperitoneally injected with 20 mg/kg CIAC001 or 10 mg/kg THC once daily. After 1 h, the mice were anesthetized with isoflurane by a small animal anesthesia machine (R500IE, RWD Life Science Co) on day 2 and day 5. The respiratory rate of mice was recorded three times within 20 s. The weights of mice were recorded every day.

[10] = tested on: LPS-induced IL-1β, TNF-α, IL-6, iNOS, IL-10 mRNA in BV-2 cells; experiment: qRT-PCR of proinflammatory and M1/M2 marker mRNAs in LPS-treated BV-2 cells; type: cell-based
Experimental: Total RNA was extracted from cells or mouse brains using the RNeasy Mini Kit. Isolated RNA was reverse-transcribed into cDNA using an RT2 Easy First Strand cDNA Synthesis Kit following the manufacturer's protocols. PCR amplification was conducted using synthetic primers, SYBR Green, and a TOptical Real-Time qPCR Thermal Cycler (Analytik Jena, Thuringia, Germany). The data were analyzed by the […] method, and Rpl711 or Rpl27 was used as an internal control.

[11] = LPS-treated cells, mRNA by qPCR

Chain of PKM2 protein (P14618 whole entry, species assumed): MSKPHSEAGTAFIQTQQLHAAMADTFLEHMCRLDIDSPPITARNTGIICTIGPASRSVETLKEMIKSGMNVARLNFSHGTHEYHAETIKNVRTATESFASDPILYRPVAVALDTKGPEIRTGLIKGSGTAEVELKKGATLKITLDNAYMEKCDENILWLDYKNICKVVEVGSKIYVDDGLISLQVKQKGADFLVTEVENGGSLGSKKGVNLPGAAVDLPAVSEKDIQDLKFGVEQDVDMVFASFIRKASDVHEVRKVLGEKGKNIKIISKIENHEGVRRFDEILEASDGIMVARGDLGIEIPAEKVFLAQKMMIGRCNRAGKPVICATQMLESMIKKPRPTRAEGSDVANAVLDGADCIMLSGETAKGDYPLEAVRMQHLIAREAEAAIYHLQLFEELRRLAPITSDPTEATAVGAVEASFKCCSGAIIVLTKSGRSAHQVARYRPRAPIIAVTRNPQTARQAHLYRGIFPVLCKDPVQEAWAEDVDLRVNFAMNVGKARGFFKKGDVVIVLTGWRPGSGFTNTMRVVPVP
T1 sequence (P21554 whole entry): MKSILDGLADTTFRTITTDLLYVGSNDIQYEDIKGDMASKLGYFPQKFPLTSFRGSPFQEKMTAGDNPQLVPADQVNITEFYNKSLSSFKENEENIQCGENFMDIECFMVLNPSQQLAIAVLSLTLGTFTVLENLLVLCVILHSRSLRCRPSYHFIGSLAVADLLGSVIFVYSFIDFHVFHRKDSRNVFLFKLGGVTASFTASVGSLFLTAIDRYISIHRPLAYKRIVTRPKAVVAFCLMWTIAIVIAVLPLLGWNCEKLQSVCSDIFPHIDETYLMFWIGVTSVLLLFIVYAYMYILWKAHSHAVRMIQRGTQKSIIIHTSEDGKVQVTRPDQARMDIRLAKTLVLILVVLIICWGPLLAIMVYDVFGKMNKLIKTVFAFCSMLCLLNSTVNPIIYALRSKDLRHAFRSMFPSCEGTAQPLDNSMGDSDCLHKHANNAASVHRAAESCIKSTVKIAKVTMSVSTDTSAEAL

C=C(C)[C@@H]1CCC(C)=C[C@H]1c1c(O)cc(C(C)n2nccn2)cc1O (stereo partly drawn) [CIAC001, (1′R,2′R)-4-(1-(2H-1,2,3-Triazol-2-yl)ethyl)-5′-methyl-2′-(prop-1-en-2-yl)-1′,2′,3′,4′-tetrahydro-[1,1′-biphenyl]-2,6-diol]
Syn1 and Aβ levels [1]: reduces Syn1 and Aβ levels | Tau and TrkB phosphorylation [1]: inhibits Tau and TrkB phosphorylation | LPS-induced lactate release [2]: significantly inhibited | CB1 receptor activity [3]: no apparent CB1/CB2 activity | stoichiometry of CIAC001-PKM2 interaction [4]: 0.54±0.07 | Kd ([4]; intrinsic fluorescence quenching, read-out: dissociation constant KD): 2200 ± 200 nM | LPS-induced morphological changes of microglia [5]: considerably reversed | grooming and rubbing behaviors (open field) [6]: No apparent differences | motor activity (open field) [6]: No apparent differences | increase of hippocampal potential [7]: ~500% | chronic morphine-induced Hif-1α overexpression in mPFC [8]: inhibit chronic morphine-induced Hif-1α overexpression | respiratory rate [9]: did not affect the respiratory rate | LPS-induced overexpression of IL-1β mRNA ([10]; BV-2 cells): concentration-dependently inhibited | LPS-induced overexpression of IL-6 mRNA ([10]; BV-2 cells): concentration-dependently inhibited | LPS-induced overexpression of TNF-α mRNA ([10]; BV-2 cells): concentration-dependently inhibited | expression of M1 phenotype markers IL-1β and iNOS [10, 11]: inhibited LPS-induced increased expression | expression of M2 phenotype marker IL-10 [10, 11]: attenuated LPS-induced decreased expression
